The subject of this test is rHSGGT1 (HSGGT1). Nature of the test: pNA release at […] nm, Michaelis-Menten fit. It is filed as biochemical, Helicobacter saguini. The settings on record: 20 mM glycylglycine as acceptor; Tris-HCl pH 8; 37 C; mean of three batches.

From paper PMC6379152 (Cellular microbiology, 2018) come the findings set out here.

As a reminder, the Km is the concentration of substrate that gives half-maximal velocity. `N[C@@H](CCC(=O)Nc1ccc([N+](=O)[O-])cc1)C(=O)O` [GpNA, L-y-glutamyl-p nitroanilide]: the Km was determined as 12.3 ± 2.35 µM.
